Read-outs that look alike come from different tables or passages of the source.
Tests used:
[1] = system: MCF-7 (human breast carcinoma cells); test: MTT cell proliferation and viability assay, MCF-7; format: cell-based; conditions: for EC50: MCF7, Table 2, 72 h; for IC50: MCF7, Table 3, 72 h, read-out: Inhibition Concentration (IC50) μM MCF-7 (Breast)
Method: (§1) Normal human fibroblast cell lines (GM9503 and GM8399) and human carcinoma cell lines MCF-7, A549, HCT116, SKOV-3 and PC-3 were maintained in DMEM (Dulbeco's Modified Essential Medium) supplemented with 10% FBS (Fetal Bovine Serum). In addition, murine leukemia MDAY-D2 cells were maintained in RPMI 1640 media supplemented with 5% FBS. All media were supplemented with 100 […] (all from Hyclone, Logan, Utah). Cells were incubated in a humidified air atmosphere containing 5% CO2 at 37° C.
(§2) Cell growth and viability were measured using the 3-(4,5-dimethythiazol-2-yl)-2,5-diphenyl tetrazolium bromide (MTT) reduction assay. MTT reagent (Sigma, St. Louis, Mo.) was prepared at 5 mg/ml in ddH2O (5× solution), filter sterilized and stored in the dark at −20° C.
(§3) To determine the optimal number of cells to seed per well, preliminary experiments were conducted examining increasing cell densities in 96 well plates. Cell were seeded at various densities and examined under the microscope after 96 h. Based on these experiments and growth curve analyses, optimal cell densities were selected for each cell line. In brief, exponentially growing cells were harvested and 100 μL of cell suspension containing approximately 2000 cells was plated in 96-well microtiter plates. After 24 hours of incubation to allow for cell attachment, cells were treated with varying concentrations of test samples in medium (60 μL/well) supplemented with 5% FBS and incubated for 72 h at 37° C. under 5% CO2. Three hours after the addition of MTT, the amount of formazan formed was measured spectrophotometrically at 570 nm with a Spectramax Plus 384 plate reader.
(§4) To assess the effects of the novel compounds on growth and viability, GM9503 (normal human fibroblast cells; 2.08×10^3 cells/well), GM8399 (normal human fibroblast cells; 2.04×10^3 cells/well), A549 (human lung carcinoma cells; 2.05×10^3 cells/well), HCT116 (human colon carcinoma cells; 2.19×10^3 cells/well), MCF-7 (human breast carcinoma cells; 2.19×10^3 cells/well), SKOV-3 (human ovarian carcinoma cells; 2.10×10^3 cells/well), PC-3 (human prostate carcinoma cells; 2.08×10^3 cells/well) and MDAY-D2 (murine leukemia cells; 2.5×10^3 cells/well) were seeded in 96 well plates in supplemented medium. Twenty-four hours post-seeding, cells were treated with either DMEM supplemented with 5% FBS (as a control) or with compounds (IIb), (Ie) and (Id) at increasing concentrations. After incubation for 72 h, cell growth and viability were measured. Each compound was tested in triplicate and the data shown in Tables 2-4 represent the mean of viable cells compared to medium control.

[2] = system: A549 (human lung carcinoma cells); test: MTT cell proliferation and viability assay, A549; format: cell-based; conditions: for EC50: Table 2, 72 h; for IC50: Table 3, 72 h, read-out: Inhibition Concentration (IC50) μM A549 (Lung)
Method: as §1, §2, §3, §4

[3] = system: HCT116 (human colon carcinoma cells); test: MTT cell proliferation and viability assay, HCT116; format: cell-based; conditions: for EC50: HCT-116, Table 2, 72 h; for IC50: HCT-116, Table 3, 72 h, read-out: Inhibition Concentration (IC50) μM HCT116 (Colon)
Method: as §1, §2, §3, §4

[4] = system: GM9503 (normal human fibroblast cells); test: MTT cell proliferation and viability assay, GM9503; format: cell-based; conditions: for IC50: Table 4, comparative toxicity, 72 h, read-out: Inhibition Concentration (IC50) μM GM9503 (Normal human fibroblast); for EC50: Table 2, 72 h, read-out: Human (EC50) μM GM9503 (Normal Skin Fibroblast)
Method: as §1, §2, §3, §4

[5] = system: MDAY-D2 (murine leukemia cells); test: MTT cell proliferation and viability assay, MDAY-D2; format: cell-based
Method: as §1, §2, §3, §4

[6] = system: PC-3 (human prostate carcinoma cells); test: MTT cell proliferation and viability assay, PC-3; format: cell-based; conditions: Table 3, 72 h, read-out: Inhibition Concentration (IC50) μM PC-3 (Prostate)
Method: as §1, §2, §3, §4

[7] = system: SKOV-3 (human ovarian carcinoma cells); test: MTT cell proliferation and viability assay, SKOV-3; format: cell-based; conditions: SK-OV-3, Table 3, 72 h, read-out: Inhibition Concentration (IC50) μM SKOV-3 (Ovarian)
Method: as §1, §2, §3, §4

[8] = system: GM8399 (normal human fibroblast cells); test: MTT cell proliferation and viability assay, GM8399; format: cell-based; conditions: Table 4, comparative toxicity, 72 h, read-out: Inhibition Concentration (IC50) μM GM8399 (normal human fibroblast)
Method: as §1, §2, §3, §4

[9] = system: Human colon carcinoma cell line HCT116; test: Mechanism of action: microscopy of treated HCT116 cells over time; format: cell-based; conditions: 30 μM; for cell morphology (mechanism of cell death): imaged at 2-16 h, 63x magnification
Method: Human colon carcinoma cell line HCT116 was treated with compounds (IIb), (Ie) and (Id) and observed over a time period to determine the mechanism of cell death. The experiment was conducted as follows:
HCT116 cells were seeded and treated with each compound. At each time point, the cells were imaged using a neutral microscope at 63× magnification prior to fixing. The time points were 2, 4, 6, 8, 12, and 16 hours.
This may potentially be caused by a population doubling at this time-point.

[10] = system: B16-BL6; conditions: Banskota et al., J Ethnopharmacol 2002; read-out: EC50 against B16-BL6; cited from earlier work
[11] = system: B-16 melanoma cell line; test: [3H]-thymidine incorporation, in vitro anticancer activity; format: cell-based; conditions: B16, 24 h + 24 h incubation
Method: The cell lines were maintained in EMEM medium supplemented with 10% FCS, 0.1% sodium bicarbonate and 12 mM glutamine. In a typical procedure, 1×10^4 cells were seeded into each of 96 well plate in 90 μL volume of medium. The plates were incubated for 24 h in the presence of CO2 to allow for cell attachment. After 24 h, test compounds were evaluated at five 10 fold dilutions from 1:10, 1:100, 1:1000, 1:10000 and 1:100000. To each test well 100 μL of test compound solution was added and the medium with vehicle was added to control wells and the plates were further incubated. After 24 h of incubation, 10 μL of [3H]-thymidine was added to each well to obtain a 1 μCi concentration per well and incubated for a further 24 h. The plates were terminated, cells harvested and read by microbeta plate reader.

[12] = Mus musculus, MDAY-D2, Table 2, 72 h

IC50 [1]	IC50 [2]	IC50 [3]	IC50 [6]	IC50 [7]	Compound	IC50 ([4]; Homo sapiens, Fibroblast)	IC50 [8]	EC50 [10]	further results
33 µM	33.2 µM	27.9 µM	9.04 µM	16.5 µM	O=C(/C=C/c1ccccc1)OCC(O)COC(=O)/C=C/c1ccc(O)c(O)c1 (stereo not shown) [Compound (Ie), (E)-3-(cinnamoyloxy)-2-hydroxypropyl 3-(3,4-dihydroxypheyl)acrylate]	37 µM	23 µM		EC50 [1]: 25.9 µM; EC50 [2]: 0.64 µM; EC50 [3]: 59.2 µM; EC50 [5, 12]: 1.5 µM; cell morphology (mechanism of cell death) [9]: exhibited the characteristic membrane blebbing morphology commonly seen during apoptosis
					O=C(/C=C/c1ccc(O)c(O)c1)OCc1ccccc1 [Benzyl caffeate, benzyl caffeate]			2.03 µM	
					O=C(O)/C=C/c1ccc(O)c(O)c1 [caffeic Acid, caffeic acid, reference compound]	22 µM	24 µM		
11.7 µM	0.69 µM	0.59 µM	1.32 µM	0.75 µM	CC(=O)O[C@H]1C(=O)[C@@]2(C)[C@H]([C@H](OC(=O)c3ccccc3)[C@]3(O)C[C@H](OC(=O)[C@H](O)[C@@H](NC(=O)c4ccccc4)c4ccccc4)C(C)=C1C3(C)C)[C@]1(OC(C)=O)CO[C@@H]1C[C@@H]2O [paclitaxel, reference compound]	0.7 µM	2.1 µM		
					CC(=O)OC(COC(=O)/C=C/c1ccc(O)cc1)COC(=O)/C=C/c1ccc(O)cc1 [(2E,2′E)-2-acetoxypropane-1,3-diyl bis(3-(4-hydroxyphenyl)acrylate)]			81.9 µM	
					O=C(/C=C/c1ccc(O)c(O)c1)OCCc1ccccc1 [phenethyl caffeate]			3.16 µM	
					C[S+](C)[O-] [DMSO]				EC50 [4]: 20.3 µM; EC50 ([5]; Table 2, 72 h): 43.6 µM
85.2 µM	18.2 µM	11.5 µM	9.07 µM	22 µM	COc1ccc(/C=C/C(=O)OCC(O)COC(=O)/C=C/c2ccccc2)cc1OC (stereo not shown) [Compound (Id), (E)-3-(cinnamoyloxy)-2-hydroxypropyl 3-(3,4-dimethoxyphenyl) acrylate]	60 µM	16 µM		EC50 [11]: 1.08 µM; EC50 [1]: 72.2 µM; EC50 [2]: 0.59 µM; EC50 [3]: 102 µM; EC50 [5, 12]: 5 µM; cell morphology (mechanism of cell death) [9]: exhibited the characteristic membrane blebbing morphology commonly seen during apoptosis
74.5 µM	21 µM	27 µM	6.76 µM	15.8 µM	O=C(/C=C/c1ccc(O)c(O)c1)OCC(O)COC(=O)/C=C/c1ccc(O)c(O)c1 [Compound (IIb), (2E,2′E)-2-hydroxypropane-1,3-diyl bis(3-(3,4-dihroxyphenyl) acrylate]	71.2 µM	38 µM		EC50 [11]: 6.12 µM; EC50 [1]: 1 µM; EC50 [2]: 2.17 µM; EC50 ([4]; Homo sapiens, Fibroblast): 57.9 µM; EC50 [5, 12]: 3.4 µM; relative aggressiveness of apoptosis induction ([9]; compared among (IIb), (Ie), (Id)): the most aggressive; cell morphology (mechanism of cell death) [9]: exhibited the characteristic membrane blebbing morphology commonly seen during apoptosis
					COc1cc(/C=C/C(=O)OCC(COC(=O)/C=C/c2ccc(O)cc2)OC(C)=O)ccc1O (stereo not shown) [(E)-2-acetoxy-3-(((E)-3-(4-hydroxy-3-methoxyphenyl)acryloyl)oxy)propyl 3-(4-hydroxyphenyl)acrylate]			66 µM	
					O=C(/C=C/c1ccc(O)c(O)c1)OCC=Cc1ccccc1 [cinnamyl caffeate]			1.92 µM	

Source: US10052301B2, “Derivatives of propane diyl dicinnamate” (ORX PHARMACEUTICAL CORPORATION, priority 2009, dated 2018)
